Drawing on PubChem BioAssay (NCI), this text covers TGI for six compounds.

Some test systems named below: K-562 leukemia; OVCAR-5 ovarian; PC-3 prostate; SR leukemia; HOP-92 NSCLC; NCI-H460 lung; HCC-2998 colon; BT-549 breast; MDA-MB-231 breast; NCI-H23 lung; HS 578T breast; SNB-75 CNS; ACHN renal; SK-OV-3 ovarian; T-47D breast; HT29 colon; SF-539 CNS; UACC-62 melanoma; A549 NSCLC; NCI/ADR-RES ovarian.
Holding throughout (experiment): NCI-60 cell line screen, 48 h

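Each compound was tested at five concentrations against cells in 96-well plates for 48 hours. TGI is the concentration that stops growth completely.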 Where only a bound is given, the exact number is not on record here.

On to `CC1=C(/C=C/C(C)=C/C=C/C(C)=C/C(=O)OC2CC(n3cc(F)c(=O)[nH]c3=O)OC2CO)C(C)(C)CCC1` (stereo not given), for which the TGI was 14 µM with K-562 leukemia; 36.8 µM in the assay on OVCAR-5 ovarian; 20.8 µM in the assay on PC-3 prostate; > 47.2 µM in the assay with SR leukemia; 36.7 µM in the assay on HOP-92 NSCLC; 15.3 µM with NCI-H460 lung. Also, the TGI is 26.8 µM with HCC-2998 colon; 22.3 µM in the assay with BT-549 breast; 29.4 µM in the assay on MDA-MB-231 breast; 20.7 µM with NCI-H23 lung; > 56 µM with HS 578T breast; 18.6 µM in the assay with SNB-75 CNS. For the same compound, the TGI in the assay with ACHN renal turned out to be 11.6 µM; in the assay with SK-OV-3 ovarian it was 19.7 µM; in the assay on T-47D breast it was 21.2 µM; in the assay with HT29 colon, 21.5 µM; with SF-539 CNS, 0.54 µM; in the assay with UACC-62 melanoma it was 4.96 µM. Further, the TGI amounted to 17.6 µM with A549 NSCLC and 24.9 µM in the assay on NCI/ADR-RES ovarian.

Take `CC1OC(OC2C(OC(=O)[C@]34CCC(C)(C)C[C@H]3C3=CC[C@@H]5[C@@]6(C)CC[C@H](OC7OC(CO)C(O)C(O)C7OC7OC(CO)C(O)C(O)C7O)C(C)(C)[C@@H]6CC[C@@]5(C)[C@]3(C)CC4)OCC(O)C2O)C(O)C(OC2OCC(O)C(O)C2O)C1OC1OCC(O)C(OC2OCC(O)C(O)C2O)C1O` (stereo not given in full): the TGI with K-562 leukemia is 23.2 µM; with OVCAR-5 ovarian it was 23.5 µM; in the assay with PC-3 prostate, 25.9 µM; in the assay on SR leukemia it was 16.2 µM; in the assay with HOP-92 NSCLC, 20.2 µM; in the assay with NCI-H460 lung, > 100 µM. Besides, the TGI with HCC-2998 colon worked out at 4.38 µM; in the assay on BT-549 breast it was 31.4 µM; in the assay with MDA-MB-231 breast, 26.9 µM; with NCI-H23 lung it was 25.1 µM; with HS 578T breast, 50.9 µM; in the assay with SNB-75 CNS, 40.8 µM. The TGI was 25.9 µM in the assay on ACHN renal; > 69.5 µM in the assay with SK-OV-3 ovarian; 51.8 µM in the assay with T-47D breast; 14.2 µM in the assay with HT29 colon; > 100 µM in the assay with SF-539 CNS; 30.2 µM in the assay on UACC-62 melanoma. Moreover, the values for the TGI in the assay on A549 NSCLC and in the assay on NCI/ADR-RES ovarian were 15 µM and > 100 µM, respectively.

Consider `CCOC(=O)C(CCN1CCC2(CC1)C(=O)N(C)CN2c1ccccc1)C(=O)OCC`, for which the TGI with K-562 leukemia, with OVCAR-5 ovarian, with PC-3 prostate, in the assay with SR leukemia, with HOP-92 NSCLC and in the assay with NCI-H460 lung was > 100 µM each time. For the same compound, the TGI with HCC-2998 colon, in the assay with BT-549 breast, in the assay on MDA-MB-231 breast, in the assay on NCI-H23 lung, with HS 578T breast and in the assay with SNB-75 CNS was > 100 µM each time. For the same compound, the TGI in the assay with ACHN renal, with SK-OV-3 ovarian, in the assay on T-47D breast, in the assay on HT29 colon, in the assay on SF-539 CNS and in the assay with UACC-62 melanoma was > 100 µM throughout. Also, the TGI in the assay on A549 NSCLC and in the assay on NCI/ADR-RES ovarian was > 100 µM each time.

Take `O=C1c2ccccc2C(=O)c2c1nc1ccccc1c2-c1cncc(-c2c3c(nc4ccccc24)C(=O)c2ccccc2C3=O)c1`: the TGI is > 100 µM in the assay with K-562 leukemia; > 100 µM in the assay with OVCAR-5 ovarian; > 100 µM in the assay with PC-3 prostate; 7.9 µM in the assay with SR leukemia; > 43.7 µM in the assay on HOP-92 NSCLC; 10 µM with NCI-H460 lung. Moreover, the TGI in the assay on HCC-2998 colon was found to be 49.7 µM; in the assay on BT-549 breast, 40 µM; with MDA-MB-231 breast, 98.2 µM; in the assay on NCI-H23 lung it was 2.62 µM; in the assay on HS 578T breast, 14.7 µM; in the assay with SNB-75 CNS it was 21.1 µM. For the same compound, the TGI in the assay on ACHN renal was > 55.7 µM; in the assay with SK-OV-3 ovarian, > 100 µM; with T-47D breast, 57.6 µM; in the assay on HT29 colon, 27.8 µM; in the assay with SF-539 CNS, 60.5 µM; in the assay on UACC-62 melanoma it was 19.9 µM. Further, the TGI in the assay with A549 NSCLC turned out to be 22.3 µM; in the assay with NCI/ADR-RES ovarian, 51 µM.

With `[N-]=[N+]=CC(=O)OC1Cc2ccccc2C1`, the TGI in the assay on K-562 leukemia, in the assay on OVCAR-5 ovarian, in the assay with PC-3 prostate, with SR leukemia, in the assay on HOP-92 NSCLC and in the assay with NCI-H460 lung was > 100 µM throughout. Also, the TGI with HCC-2998 colon, in the assay with BT-549 breast, with MDA-MB-231 breast, in the assay with NCI-H23 lung, in the assay on HS 578T breast and in the assay with SNB-75 CNS was > 100 µM in each case. Besides, the TGI in the assay with ACHN renal was 81.9 µM; with SK-OV-3 ovarian it was > 100 µM; in the assay with T-47D breast it was > 100 µM; in the assay with HT29 colon, > 100 µM; with SF-539 CNS it was > 100 µM; in the assay with UACC-62 melanoma, > 100 µM. For the same compound, the TGI in the assay with A549 NSCLC and with NCI/ADR-RES ovarian was > 100 µM each time.

Turning to `CCCC(=O)N1CCN(c2ccc3c(c2)OC(C)O3)CC1` (stereo not given), the TGI in the assay with K-562 leukemia, in the assay with OVCAR-5 ovarian, in the assay on PC-3 prostate, with SR leukemia, in the assay with HOP-92 NSCLC and with NCI-H460 lung was > 100 µM each time. Moreover, the TGI in the assay with HCC-2998 colon, in the assay on BT-549 breast, in the assay on MDA-MB-231 breast, in the assay with NCI-H23 lung, in the assay with HS 578T breast and with SNB-75 CNS was > 100 µM each time. The TGI in the assay with ACHN renal, in the assay on SK-OV-3 ovarian, in the assay on T-47D breast, with HT29 colon, in the assay on SF-539 CNS and with UACC-62 melanoma was > 100 µM throughout. Besides, the TGI with A549 NSCLC and in the assay with NCI/ADR-RES ovarian was > 100 µM throughout.
